Read-outs that look alike come from different tables or passages of the source.
Assays:
[1] = test system: Stichococcus bacillaris SAG 379-1a / CCAP 379/1a; experiment: Algal efficacy test of dry paint films (modified ASTM 5589, 6-well plates); assay type: cell-based; settings: for inhibition at 5000 ppm: Stichococcus bacillaris, 504 h; for Total conc: total biocide concentration in paint at which the % inhibition is reported, pass level ≥75% inhibition, single actives: maximum concentration tested, no pass
Method: (§1) These paints were then diluted with an antimicrobial free acrylic/silicone based paint and mixed to prepare targeted concentrations of antimicrobial compounds for the testing. The total biocides concentrations tested were 125, 250, 500, 1000, 2000 and 5000 ppm. After biocides addition or dilution, the paints were mixed 90 seconds with the horse power shaker (AXEL 75M3372/Agitateur 50-10MI) until uniformity was achieved. Paints containing different antimicrobial compounds at the same levels were mixed together in order to obtain the desired ratio of antimicrobial compounds. After one day, the paints were applied to Schleicher & Schuell filter paper at 280 μm wet film thickness and dried for 3 days at room temperature avoiding direct exposure to sunlight. Square discs (1.6 cm×1.6 cm) were cut out from each panel and were used as the substrate for algal efficacy tests. This sample size allowed for an agar border when the sample disc was placed into the well of the test plate.
(§2) Algal efficacy was tested according to modified ASTM 5589 which is a standard accelerated test method for determining resistance of various coatings (including paints) to algal defacement. To accommodate for high-throughput screening, this method was scaled down from petri dishes to 6-well plates. Bold Modified Basal Freshwater Nutrient Solution was used as growth medium. A single coated filter paper coupon was placed with a pair of sterile forceps at the center of the agar plug (on top) with the painted surface facing upwards. Algal inoculums were prepared by mixing equal concentrations (1×10^6 cfu/ml) and equal volumes of exponentially growing algae cultures.
(§3) Each well that contains a tested coupon was inoculated with 1750 μl of algal suspensions (1×10^6 cfu/ml) making sure that the whole surface (paint film as well as the agar surrounding it) was evenly covered. The plates were incubated at room temp (21° C.-25° C.) with cyclic exposure to light and dark phases, for a period of three weeks.
(§4) At the end of the three week incubation period, the samples were scored for percent inhibition regarding visible algal growth compared to the blank sample (0% inhibition).
(§5) The SI is calculated based on F. C. Kull et.
(§6) SI value of <1 in the formula indicates a synergism of the blended biocides exists.
(§7) The minimal targeted inhibition was set at 75%, meaning a coupon with at least 75% algal growth inhibition was considered as a pass.

Chlorella sp. ATCC 7516 = experiment: as above; assay type: cell-based; settings: for inhibition at 5000 ppm: 504 h; for Total conc: total biocide concentration in paint at which the % inhibition is reported, pass level ≥75% inhibition, single actives: maximum concentration tested, no pass
Method: as §1, §2, §3, §4, §5, §6, §7

## CCNc1nc(NC(C)(C)C)nc(SC)n1 [Terbutryn, N^2-tert-butyl-N^4-ethyl-6-methylthio-1,3,5-triazine-2,4-diamine]
[1]; Stichococcus, total conc 5000 ppm in paint, visible algal growth vs blank, 3 weeks, read-out: % inhibition
  inhibition at 5000 ppm: 35%
[1]; Stichococcus, 3 weeks
  Total conc: 5000 ppm
Chlorella sp. ATCC 7516; total conc 5000 ppm in paint, visible algal growth vs blank, 3 weeks, read-out: % inhibition
  inhibition at 5000 ppm: 65%
Chlorella sp. ATCC 7516; 3 weeks
  Total conc: 5000 ppm

## O=c1[nH]c2c(c(=O)n1C1CCCCC1)CCC2 [Lenacil, 3-cyclohexyl-1,5,6,7-tetrahydrocyclopentapyrimidine-2,4(3H)-dione]
[1]
  inhibition at 5000 ppm: 70%
[1]; Stichococcus, 3 weeks
  Total conc: 5000 ppm
Chlorella sp. ATCC 7516
  inhibition at 5000 ppm: 30%
Chlorella sp. ATCC 7516; 3 weeks
  Total conc: 5000 ppm
